Data reported in patent US20220169628A1 (University of Florida Research Foundation, Incorporated, priority 2019, published 2022).
Where two headings read alike, the source gives them in different places.

Key:
Type in all cases: cell-based
MOLT-4 cells [1] = test: Cell viability assay, MTS, 72 h, MOLT-4; settings: for IC50: Homo sapiens
Protocol: (§1) Cancer cells from different tissue origins including acute lymphoblastic leukemia (MOLT4 and RS4; 11), small cell lung cancer (NCI-H146 or simply H146), and multiple myeloma (EJM and H929) were incubated with increasing concentrations of Examples 1-21 or ABT-263 for 72 h. Cell viability was measured by tetrazolium-based MTS assay. 5×10^4 to 1×10^5 suspension cells or 3×10^3 to 5×10^3 adherent cells were seeded and treated in 96-well plates for 72 h. The EC50 values of individual agents were calculated with GraphPad Prism.

human platelets [2] = test: Human platelet viability, MTS assay; settings: for IC50: Platelet, MTS assay (Table 2, FIG. 2)
Protocol: FIG. 2. depicts dose response curves of ABT-263 and Compound 53 in MOLT-4 T-ALL cells & human platelets determined by MTS assay.
as §1

MOLT-4 cells [3] = test: Cell viability assay, MTS, 48 h, MOLT-4; settings: for IC50: Homo sapiens, MOLT-4, 48 h
Protocol: (§2) Acute lymphoblastic leukemia cells (MOLT-4 and RS4; 11) or small cell lung cancer (NCI-H146 or simply H146) were incubated with increasing concentrations of Bcl-xL degraders for 48 h. Cell viability was measured by tetrazolium-based MTS assay.

RS4;11 cells = test: Cell viability assay, MTS, 48 h, RS4;11; settings: for IC50: Homo sapiens, RS4-11, 48 h
Protocol: as §2

NCI-H146 cells = test: Cell viability assay, MTS, 48 h, NCI-H146; settings: for IC50: Homo sapiens
Protocol: as §2

human platelets [4] = test: Human platelet viability, 48 h; settings: for IC50: Platelet
RS4 cells = test: Cell viability assay, MTS, 72 h, RS4;11; settings: Homo sapiens
Protocol: as §1

caspase-3 and PARP = test: Downstream apoptotic mechanism, western blot of caspase-3 and PARP in MOLT-4 cells; settings: after 16 h treatment
Protocol: […] At the end of incubation, cells were harvested for western blot analysis of cleaved and full length caspase-3 and poly (ADP) ribose polymerase (PARP). The antibodies for cleaved caspase-3 (Cat #9661) and PARP (Cat #9532) were purchased from Cell Signaling Technology.

Bcl-xL [5] = molecular target: T1, Bcl-xL (Homo sapiens, UniProt Q07817); test: Protein degradation assay in MOLT-4 cells (western blot); parameters: endogenous in cells; host or cells: MOLT-4 cells; settings: 16 h, read-out: DC50 (concentration with 50% degradation) of Bcl-xL
Protocol: (§3) MOLT4 cells and human platelets were incubated with increasing concentrations of test compounds for 16 h. The cells were harvested and lysed in RIPA lysis buffer supplemented with protease and phosphatase inhibitor cocktails. An equal amount of protein (20 μg/lane) was resolved on a pre-cast 4-20% SDS-PAGE gel. Proteins were subsequently transferred to NOVEX PVDF membranes by electrophoresis. The membranes were blocked in blocking buffer (5% non-fat dry milk in TBS-T), and incubated with primary antibodies (at optimized concentrations) overnight at 4° C. After three washings in TBS-T, the membranes were incubated with an appropriate HRP-conjugated secondary antibody for 1 h at room temperature. After extensive washing for three times, the proteins of interest were detected with ECL western blotting detection reagents and recorded with autoradiography (Pierce Biotech, Rockford, Ill., USA). The primary antibodies for Bcl-xL (Cat #2762), Bcl-2 (Cat #2872), Mcl-1 (Cat #5453) and β-actin (Cat #4970) were purchased from Cell Signaling technology. The relative band intensity was measured using ImageJ software and normalized to b-actin. The DC50 (concentration with 50% degradation) was calculated using GraphPad Prism.
MOLT-4 cells and human platelets were incubated with increasing concentrations of test compounds for 16 h. The cells were harvested and lysed in RIPA lysis buffer supplemented with protease and phosphatase inhibitor cocktails. An equal amount of protein (20 μg/lane) was resolved on a pre-cast 4-20% SDS-PAGE gel. Proteins were subsequently transferred to NOVEX PVDF membranes by electrophoresis. […] After extensive washing for three times, the proteins of interest were detected with ECL western blotting detection reagents and recorded with autoradiography (Pierce Biotech, Rockford, Ill., USA). […] The relative band intensity was measured using ImageJ software and normalized to β-actin. The DC50 was calculated using GraphPad Prism.

Bcl-xL [6] = molecular target: T1, Bcl-xL; test: Protein degradation assay in human platelets (western blot); parameters: endogenous in cells; host or cells: human platelets; settings: 16 h
Protocol: as §3, with “The primary antibodies for Bcl-xL (Cat #2762), Bcl-2 (Cat #2872), Mcl-1 (Cat #5453) and β-actin (Cat #4970) were purchased from Cell Signaling technology.” left out
MOLT-4 cells and human platelets were incubated with increasing concentrations of test compounds for 16 h. […] After extensive washing for three times, the proteins of interest were detected with ECL western blotting detection reagents and recorded with autoradiography (Pierce Biotech, Rockford, Ill., USA). […]

[7] = MOLT-4 T-ALL cells, MTS assay (Table 2, FIG. 2)
[8] = 48 h, read-out: MOLT-4 IC50 (nM, 48 h)
[9] = 48 h, read-out: RS4, 11 IC50 (nM, 48 h)
[10] = 48 hours, read-out: IC50 (48 hours) MOLT-4
[11] = 48 hours, read-out: IC50 (48 hours) RS4;11

T1 sequence (Q07817 whole entry): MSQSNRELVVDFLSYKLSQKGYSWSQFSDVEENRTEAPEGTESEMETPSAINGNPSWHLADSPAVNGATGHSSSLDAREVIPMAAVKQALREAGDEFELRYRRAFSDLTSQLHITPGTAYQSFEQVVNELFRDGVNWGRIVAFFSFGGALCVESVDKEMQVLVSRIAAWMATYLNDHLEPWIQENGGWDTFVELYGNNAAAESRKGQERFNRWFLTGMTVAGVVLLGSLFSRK

| SMILES | IC50 (MOLT-4 cells [1]; [7]) [nM] | IC50 (human platelets [2]) [nM] | IC50 (MOLT-4 cells [3]; [8]) [nM] | IC50 (RS4;11 cells; [9]) [nM] | IC50 (NCI-H146 cells) [nM] | IC50 (human platelets [4]) [µM] | IC50 (MOLT-4 cells [1]; MOLT-4 cells, 72 h, MTS) [nM] | potency in MOLT-4 cells compared with ABT-263 (MOLT-4 cells [1]; MOLT-4 cells, FIG. 2) | IC50 (RS4 cells) [nM] | effects on human platelets compared with ABT-263 (human platelets [2]; FIG. 2) | cleavage of caspase-3 and PARP (caspase-3 and PARP) | DC50 (Bcl-xL [5]) [nM] | Bcl-xL levels in human platelets (Bcl-xL [6]) | IC50 (MOLT-4 cells [3]; [10]) [nM] | IC50 (RS4;11 cells; [11]) [nM] | potency in killing MOLT-4 cells compared with ABT-263 (MOLT-4 cells [3]; 48 h, FIG. 7) | potency in killing RS4;11 cells compared with ABT-263 (RS4;11 cells; 48 h, FIG. 7) | potency in killing NCI-H146 cells compared with ABT-263 (NCI-H146 cells; FIG. 7) | effects on human platelets compared with ABT-263 (human platelets [4]; FIG. 7) |
| --- | --- | --- | --- | --- | --- | --- | --- | --- | --- | --- | --- | --- | --- | --- | --- | --- | --- | --- | --- |
| CC1(C)CCC(c2ccc(Cl)cc2)=C(CN2CCN(c3ccc(C(=O)NS(=O)(=O)c4ccc(N[C@H](CCN5CCOCC5)CSc5ccccc5)c(S(=O)(=O)C(F)(F)F)c4)cc3)CC2)C1 [ABT-263, reference compound] | 202 | 190 | 201 | 35 | 36 | 0.5 |  |  |  |  |  |  |  |  |  |  |  |  |  |
| Cc1ncsc1-c1ccc([C@H](C)NC(=O)[C@@H]2C[C@@H](O)CN2C(=O)[C@@H](NC(=O)CCCCCCCCC(=O)NCC2(C)CCC(c3ccc(Cl)cc3)=C(CN3CCN(c4ccc(C(=O)NS(=O)(=O)c5ccc(N[C@H](CCN6CCOCC6)CSc6ccccc6)c(S(=O)(=O)C(F)(F)F)c5)cc4)CC3)C2)C(C)(C)C)cc1 (stereo partly drawn) [Compound 53, N^1-((4′-chloro-4-methyl-6-((4-(4-(((4-(((R)-4-morpholino-1-(phenylthio)butan-2-yl)amino)-3-((trifluoromethyl)sulfonyl)phenyl)sulfonyl)carbamoyl)phenyl)piperazin-1-yl)methyl)-2,3,4,5-tetrahydro-[1,1′-biphenyl]-4-yl)methyl)-N^10—((S)-1-((2S,4R)-4-hydroxy-2-(((S)-1-(4-(4-methylthiazol-5-yl)phenyl)ethyl)carbamoyl)pyrrolidin-1-yl)-3,3-dimethyl-1-oxobutan-2-yl)decanediamide] | 36 | 1550 |  |  |  |  | 36 | more potent than ABT-263 | 17.4 | substantially less effects on human platelets than ABT-263 |  |  |  |  |  |  |  |  |  |
| Cc1ncsc1-c1ccc([C@H](C)NC(=O)[C@@H]2C[C@@H](O)CN2C(=O)[C@@H](NC(=O)CCCCCCCCC(=O)NCC2(C)CCC(c3ccc(Cl)cc3)=C(CN3CCN(c4ccc(C(=O)NS(=O)(=O)c5ccc(N[C@H](CCN6CCOCC6)CSc6ccccc6)c(S(=O)(=O)C(F)(F)F)c5)cc4)CC3)C2)C(C)(C)C)cc1 (stereo partly drawn) [degrader #5, N1-((4′-chloro-4-methyl-6-((4-(4-(((4-(((R)-4-morpholino-1-(phenylthio)butan-2-yl)amino)-3-((trifluoromethyl)sulfonyl)phenyl)sulfonyl)carbamoyl)phenyl)piperazin-1-yl)methyl)-2,3,4,5-tetrahydro-[1,1′-biphenyl]-4-yl)methyl)-N10-((S)-1-((2S,4R)-4-hydroxy-2-(((S)-1-(4-(4-methylthiazol-5-yl)phenyl)ethyl)carbamoyl)pyrrolidin-1-yl)-3,3-dimethyl-1-oxobutan-2-yl)decanediamide] |  |  | 31 | 22.2 | 88 | 3.5 |  |  |  |  | induced cleavage of caspase-3 and PARP | 21.5 | did not affect Bcl-xL levels |  |  |  |  |  |  |
| Cc1ncsc1-c1ccc([C@H](C)NC(=O)[C@@H]2C[C@@H](O)CN2C(=O)[C@@H](NC(=O)CCCCCCCCC(=O)NC[C@@]2(C)CCC(c3ccc(Cl)cc3)=C(CN3CCN(c4ccc(C(=O)NS(=O)(=O)c5ccc(N[C@H](CCN6CCOCC6)CSc6ccccc6)c(S(=O)(=O)C(F)(F)F)c5)cc4)CC3)C2)C(C)(C)C)cc1 [degrader #41, N1-(((S)-4′-chloro-4-methyl-6-((4-(4-(((4-(((R)-4-morpholino-1-(phenylthio)butan-2-yl)amino)-3-((trifluoromethyl)sulfonyl)phenyl)sulfonyl)carbamoyl)phenyl)piperazin-1-yl)methyl)-2,3,4,5-tetrahydro-[1,1′-biphenyl]-4-yl)methyl)-N10-((S)-1-((2S,4R)-4-hydroxy-2-(((S)-1-(4-(4-methylthiazol-5-yl)phenyl)ethyl)carbamoyl)pyrrolidin-1-yl)-3,3-dimethyl-1-oxobutan-2-yl)decanediamide] |  |  | 154 | 497 | 314 | 10 |  |  |  |  |  | 101 |  | 150 to 500 | > 500 |  |  |  |  |
| Cc1ncsc1-c1ccc([C@H](C)NC(=O)[C@@H]2C[C@@H](O)CN2C(=O)[C@@H](NC(=O)CCCCCCCCC(=O)NC[C@]2(C)CCC(c3ccc(Cl)cc3)=C(CN3CCN(c4ccc(C(=O)NS(=O)(=O)c5ccc(N[C@H](CCN6CCOCC6)CSc6ccccc6)c(S(=O)(=O)C(F)(F)F)c5)cc4)CC3)C2)C(C)(C)C)cc1 [degrader #42, N1-(((R)-4′-chloro-4-methyl-6-((4-(4-(((4-(((R)-4-morpholino-1-(phenylthio)butan-2-yl)amino)-3-((trifluoromethyl)sulfonyl)phenyl)sulfonyl)carbamoyl)phenyl)piperazin-1-yl)methyl)-2,3,4,5-tetrahydro-[1,1′-biphenyl]-4-yl)methyl)-N10-((S)-1-((2S,4R)-4-hydroxy-2-(((S)-1-(4-(4-methylthiazol-5-yl)phenyl)ethyl)carbamoyl)pyrrolidin-1-yl)-3,3-dimethyl-1-oxobutan-2-yl)decanediamide] |  |  | 15.2 | 9.9 | 45 | 1.09 |  |  |  |  |  | 11.5 |  | < 50 | < 50 | more potent | more potent | equally potent | substantially less effects on human platelets |
